Test results published in patent publication US8273701B2, “Method for diagnosing non-small cell lung carcinoma” (Trustees of Dartmouth College, priority 2005, dated 2012).

Columns and labels:
HOP62 [1] = details: HOP62 transfected with Gli1 (efficiency approximately 25%) compared with HOP62 expressing an insertless expression vector
Description: Results from DTP analysis of the NCI-60 screen were independently validated with each cell line to determine which NSCLC cell lines required Hedgehog activity to proliferate.

HS 578T = test: NCI-60 panel screen, growth inhibition; assay type: cell-based, human; details: Breast
Description: (§1) The NCI-60 panel of cell lines includes cells derived from melanoma, leukemia, and cancers of the lung, central nervous system, kidney, ovary, colon, breast and prostate. Advantageously, the NCI-60 panel has been screened with a plurality of compounds with the drug concentration resulting in 50% growth inhibition (GI50 determined for each cell line, so that a distinct “fingerprint” signature has been created for each small-molecule tested. Further, DNA microarray analyses have been performed on the NCI-60 panel, allowing for gene expression profile comparisons between drug-sensitive cell lines and drug-insensitive cell lines in response to a particular agent.
(§2) Results from the NCI-60 panel screen highlighted the important role that the Hedgehog pathway plays in breast and prostate cancer (Table 1). […] These findings underscore the broad importance of Hedgehog signaling in carcinogenesis.

ACHN = test: NCI-60 panel screen, growth inhibition; assay type: cell-based, human; details: Renal
Description: as §1, §2

NCI-H23 = test: NCI-60 panel screen, growth inhibition; assay type: cell-based, human; details: NSCLC
Description: as §1, §2

UO-31 = test: NCI-60 panel screen, growth inhibition; assay type: cell-based, human; details: Renal
Description: as §1, §2

SF-268 = test: NCI-60 panel screen, growth inhibition; assay type: cell-based, human; details: Central Nervous System
Description: as §1, §2

SW-620 = test: NCI-60 panel screen, growth inhibition; assay type: cell-based, human; details: Colon
Description: as §1, §2

DU-145 = test: NCI-60 panel screen, growth inhibition; assay type: cell-based, human; details: Prostate
Description: as §1, §2

NCI-H460 = test: NCI-60 panel screen, growth inhibition; assay type: cell-based, human; details: NSCLC
Description: as §1, §2

NCI-H322M = test: NCI-60 panel screen, growth inhibition; assay type: cell-based, human; details: NSCLC
Description: as §1, §2

NCI/ADR-RES = test: NCI-60 panel screen, growth inhibition; assay type: cell-based, human; details: Breast
Description: as §1, §2

MDA-MB-231/ATCC = test: NCI-60 panel screen, growth inhibition; assay type: cell-based, human; details: Breast
Description: as §1, §2

U251 = test: NCI-60 panel screen, growth inhibition; assay type: cell-based, human; details: Central Nervous System
Description: as §1, §2

IGROV1 = test: NCI-60 panel screen, growth inhibition; assay type: cell-based, human; details: Ovarian
Description: as §1, §2

MOLT-4 = test: NCI-60 panel screen, growth inhibition; assay type: cell-based, human; details: Leukemia
Description: as §1, §2

NCI-H226 = test: NCI-60 panel screen, growth inhibition; assay type: cell-based, human; details: NSCLC
Description: as §1, §2

786-0 = test: NCI-60 panel screen, growth inhibition; assay type: cell-based, human; details: Renal
Description: as §1, §2

EKVX = test: NCI-60 panel screen, growth inhibition; assay type: cell-based, human; details: NSCLC
Description: as §1, §2

K-562 = test: NCI-60 panel screen, growth inhibition; assay type: cell-based, human; details: Leukemia
Description: as §1, §2

OVCAR-5 = test: NCI-60 panel screen, growth inhibition; assay type: cell-based, human; details: Ovarian
Description: as §1, §2

OVCAR-8 = test: NCI-60 panel screen, growth inhibition; assay type: cell-based, human; details: Ovarian
Description: as §1, §2

BT-549 = test: NCI-60 panel screen, growth inhibition; assay type: cell-based, human; details: Breast
Description: as §1, §2

SR = test: NCI-60 panel screen, growth inhibition; assay type: cell-based, human; details: Leukemia
Description: as §1, §2

HT29 = test: NCI-60 panel screen, growth inhibition; assay type: cell-based, human; details: Colon
Description: as §1, §2

UACC-257 = test: NCI-60 panel screen, growth inhibition; assay type: cell-based, human; details: Melanoma
Description: as §1, §2

RPMI-8226 = test: NCI-60 panel screen, growth inhibition; assay type: cell-based, human; details: Leukemia
Description: as §1, §2

SK-MEL-2 = test: NCI-60 panel screen, growth inhibition; assay type: cell-based, human; details: Melanoma
Description: as §1, §2

SK-MEL-5 = test: NCI-60 panel screen, growth inhibition; assay type: cell-based, human; details: Melanoma
Description: as §1, §2

MDA MB-435 = test: NCI-60 panel screen, growth inhibition; assay type: cell-based, human; details: Breast
Description: as §1, §2

CAKI-1 = test: NCI-60 panel screen, growth inhibition; assay type: cell-based, human; details: Renal
Description: as §1, §2

A549 = test: NCI-60 panel screen, growth inhibition; assay type: cell-based, human; details: NSCLC
Description: as §1, §2

HL-60 = test: NCI-60 panel screen, growth inhibition; assay type: cell-based, human; details: Leukemia
Description: as §1, §2

SF-295 = test: NCI-60 panel screen, growth inhibition; assay type: cell-based, human; details: Central Nervous System
Description: as §1, §2

PC-3 = test: NCI-60 panel screen, growth inhibition; assay type: cell-based, human; details: Prostate
Description: as §1, §2

LOX IMVI = test: NCI-60 panel screen, growth inhibition; assay type: cell-based, human; details: Melanoma
Description: as §1, §2

TK-10 = test: NCI-60 panel screen, growth inhibition; assay type: cell-based, human; details: Renal
Description: as §1, §2

SF-539 = test: NCI-60 panel screen, growth inhibition; assay type: cell-based, human; details: Central Nervous System
Description: as §1, §2

COLO 205 = test: NCI-60 panel screen, growth inhibition; assay type: cell-based, human; details: Colon
Description: as §1, §2

NCI-H522 = test: NCI-60 panel screen, growth inhibition; assay type: cell-based, human; details: NSCLC
Description: as §1, §2

SK-MEL-28 = test: NCI-60 panel screen, growth inhibition; assay type: cell-based, human; details: Melanoma
Description: as §1, §2

SNB-75 = test: NCI-60 panel screen, growth inhibition; assay type: cell-based, human; details: Central Nervous System
Description: as §1, §2

HCT-15 = test: NCI-60 panel screen, growth inhibition; assay type: cell-based, human; details: Colon
Description: as §1, §2

RXF 393 = test: NCI-60 panel screen, growth inhibition; assay type: cell-based, human; details: Renal
Description: as §1, §2

KM12 = test: NCI-60 panel screen, growth inhibition; assay type: cell-based, human; details: Colon
Description: as §1, §2

HOP62 [2] = test: NCI-60 panel screen, growth inhibition; assay type: cell-based, human; details: NSCLC
Description: as §1, §2

HCT-116 = test: NCI-60 panel screen, growth inhibition; assay type: cell-based, human; details: Colon
Description: as §1, §2

MCF7 = test: NCI-60 panel screen, growth inhibition; assay type: cell-based, human; details: Breast
Description: as §1, §2

SNB-19 = test: NCI-60 panel screen, growth inhibition; assay type: cell-based, human; details: Central Nervous System
Description: as §1, §2

UACC-62 = test: NCI-60 panel screen, growth inhibition; assay type: cell-based, human; details: Melanoma
Description: as §1, §2

SN12C = test: NCI-60 panel screen, growth inhibition; assay type: cell-based, human; details: Renal
Description: as §1, §2

Gli1 = Gli1 knock-down by siRNA in A549 cells; assay type: cell-based, human; details: A549 cells transfected with siRNA

CC1=C2C[C@H]3[C@@H](CC=C4C[C@@H](O)CC[C@@]43C)[C@@H]2CC[C@]12O[C@@H]1C[C@H](C)CN[C@H]1[C@H]2C [Cyclopamine, cyclopamine] was tested, and the “Growth inhibitory activity in Gli1-transfected cells versus insertless expression vector” value (HOP62 [1]) was “less growth inhibitory activity”.

For Cc1nn(-c2ccccc2)c(C)c1/C=N/N1CCN(Cc2ccccc2)CC1 [SANT1], the “−log [GI50]” value (HS 578T) was 4.00, the “−log [GI50]” value (ACHN) was 4.28 and the “−log [GI50]” value (NCI-H23) was 4.38. For the same compound, the “−log [GI50]” value (UO-31) was 4.18, the “−log [GI50]” value (SF-268) was 4.42 and the “−log [GI50]” value (SW-620) was 4.00. The “−log [GI50]” value (DU-145) was 4.02, the “−log [GI50]” value (NCI-H460) was 4.47 and the “−log [GI50]” value (NCI-H322M) was 5.08. For the same compound, the “−log [GI50]” value (NCI/ADR-RES) was 4.30, the “−log [GI50]” value (MDA-MB-231/ATCC) was 4.65 and the “−log [GI50]” value (U251) was 4.17. The “−log [GI50]” value (IGROV1) was 5.08, the “−log [GI50]” value (MOLT-4) was 4.57 and the “−log [GI50]” value (NCI-H226) was 4.56. The “−log [GI50]” value (786-0) was 4.64, the “−log [GI50]” value (EKVX) was 4.00 and the “−log [GI50]” value (K-562) was 4.51. The “−log [GI50]” value (OVCAR-5) was 4.00, the “−log [GI50]” value (OVCAR-8) was 4.00 and the “−log [GI50]” value (BT-549) was 4.32. The “−log [GI50]” value (SR) was 4.86, the “−log [GI50]” value (HT29) was 4.37 and the “−log [GI50]” value (UACC-257) was 4.20. The “−log [GI50]” value (RPMI-8226) was 4.70, the “−log [GI50]” value (SK-MEL-2) was 4.22 and the “−log [GI50]” value (SK-MEL-5) was 4.73. The “−log [GI50]” value (MDA MB-435) was 4.00, the “−log [GI50]” value (CAKI-1) was 4.00 and the “−log [GI50]” value (A549) was 4.00. The “−log [GI50]” value (HL-60) was 4.54, the “−log [GI50]” value (SF-295) was 4.00 and the “−log [GI50]” value (PC-3) was 4.60. The “−log [GI50]” value (LOX IMVI) was 4.36, the “−log [GI50]” value (TK-10) was 4.54 and the “−log [GI50]” value (SF-539) was 4.12. For the same compound, the “−log [GI50]” value (COLO 205) was 4.39, the “−log [GI50]” value (NCI-H522) was 4.11 and the “−log [GI50]” value (SK-MEL-28) was 4.09. The “−log [GI50]” value (SNB-75) was 4.00, the “−log [GI50]” value (HCT-15) was 4.52 and the “−log [GI50]” value (RXF 393) was 4.00. The “−log [GI50]” value (KM12) was 4.50, the “−log [GI50]” value (HOP62 [2]) was 4.79 and the “−log [GI50]” value (HCT-116) was 4.55. The “−log [GI50]” value (MCF7) was 4.51, the “−log [GI50]” value (SNB-19) was 4.00 and the “−log [GI50]” value (UACC-62) was 4.47. The “−log [GI50]” value (SN12C) was 4.00.

With “SEQ ID NO:9: siRNA having the desired Gli1 knock-down activity (Sanchez, et al. (2004)) (AACUCCACAGGCAUACAGGAU; chemistry not given here)” the “Reduction of Gli1 levels” value (Gli1) was “approximately 90%”.
